Several values for one entry are separate records, joined by “and”; a condition that tells them apart may be missing. Equal values may be shown once.
Tested on: serum calcium
Experiment: 5/6 nephrectomized rats study: serum calcium level
Format: in vivo, rat
Set-up: Serum Ca levels: unit not given here
Conditions: 5/6 Nx rats
Procedure: Rats were 5/6 nephrectomized in two steps. Under anesthesia (pentobarbital, 50 mg/kg; intraperitoneally) and analgesia (lidocaine; topically), two-thirds of the left kidney was removed, and then the right kidney was removed after a seven-day interval. Seven days after the completion of 5/6 nephrectomy, the FR-2 diet was changed to a high-phosphate diet, containing 0.6% calcium and 0.9% phosphate (Oriental Yeast Co., Ltd., Tokyo, Japan). Approximately 2 weeks after the initiation of the high-phosphate diet, the 5/6 Nx rats were divided into five groups (n = 12/group) matched in terms of their body weight as well as their blood urea nitrogen (BUN) and serum PTH and calcium levels.
In the single-dose study, blood samples were collected from the tail vein before and at 0.5, 2, 4, 8, 24, 48, and 72 h after the oral administration of vehicle (0.5% methyl cellulose solution) or evocalcet (0.03, 0.1, 0.3, or 1 mg/kg). In the repeated-dose study, vehicle or evocalcet was orally administered to the respective groups once daily for 14 days. Blood samples were obtained from the tail vein before the first administration and after the seventh and last administrations.
The serum PTH level was measured using a Rat Intact PTH ELISA kit (Immutopics, Inc., San Clemente, CA). The serum calcium, phosphate and BUN levels were measured using an auto analyzer (Hitachi High-Technologies Corporation., Tokyo, Japan) or the following test kits: the Calcium E-test WAKO, the Phospha C-test WAKO, or the Blood Urea nitrogen B-test WAKO (Wako Pure Chemical Industries, Ltd., Osaka, Japan).

Compound: C[C@@H](N[C@H]1CCN(c2ccc(CC(=O)O)cc2)C1)c1cccc2ccccc12 [evocalcet]
- Serum Ca levels after the first administration, Mean (0.1 mg/kg, time 4 h, group mean): 7.099
- Serum Ca levels after the first administration (0.1 mg/kg, time 4 h, individual rats): 7.060 and 7.085 and 7.028 and 7.482 and 7.364 and 7.406 and 5.948 and 7.326 and 7.361 and 7.050 and 6.742
- Serum Ca levels after the first administration, Mean (0.1 mg/kg, time 8 h, group mean): 7.285
- Serum Ca levels after the first administration (0.1 mg/kg, time 8 h, individual rats): 7.692 and 7.609 and 7.307 and 7.085 and 7.975 and 4.442 and 6.559 and 7.908 and 8.235 and 7.683
- Serum Ca levels after the first administration, Mean (0.1 mg/kg, time 24 h, group mean): 7.626
- Serum Ca levels after the first administration (0.1 mg/kg, time 24 h, individual rats): 7.618 and 8.042 and 7.976 and 7.739 and 7.539 and 7.979 and 6.079 and 7.486 and 8.194 and 7.356
- Serum Ca levels (0.3 mg/kg, day 0 (before), group mean): 7.177
- Serum Ca levels (0.3 mg/kg, day 0 (before), individual rats, 0.3 mg/kg): 7.714 and 7.098 and 4.207 and 6.520 and 8.019 and 4.857 and 7.006 and 8.419 and 8.245 and 7.878 and 7.711 and 8.450
- Serum Ca levels (0.3 mg/kg, day 7 (24 h after administration), group mean): 5.744
- Serum Ca levels (0.3 mg/kg, day 7 (24 h after administration), individual rats, 0.3 mg/kg): 6.617 and 4.991 and 5.484 and 4.834 and 5.302 and 6.718 and 6.297 and 6.366 and 7.085 and 5.154 and 4.887 and 5.195
- Serum Ca levels (0.3 mg/kg, day 14 (24 h after administration), group mean): 5.948
- Serum Ca levels (0.3 mg/kg, day 14 (24 h after administration), individual rats, 0.3 mg/kg): 6.601 and 5.324 and 6.337 and 4.673 and 5.104 and 7.592 and 6.733 and 6.057 and 5.865 and 5.887 and 5.547 and 5.661
- Serum Ca levels after the first administration, Mean (0.3 mg/kg, time 0 h, group mean): 7.177
- Serum Ca levels after the first administration, Mean (0.3 mg/kg, time 0.5 h, group mean): 6.778
- Serum Ca levels after the first administration, Mean (0.3 mg/kg, time 2 h, group mean): 6.136
- Serum Ca levels after the first administration, Mean (0.3 mg/kg, time 4 h, group mean): 6.714
- Serum Ca levels after the first administration, Mean (0.3 mg/kg, time 8 h, group mean): 7.218
- Serum Ca levels after the first administration, Mean (0.3 mg/kg, time 24 h, group mean): 7.101
- Serum Ca levels (1 mg/kg, day 0 (before), group mean): 7.784
- Serum Ca levels (1 mg/kg, day 0 (before), individual rats, 1 mg/kg): 7.396 and 7.591 and 7.831 and 7.728 and 8.433 and 7.868 and 8.231 and 7.824 and 8.217 and 9.292 and 6.900 and 6.102
- Serum Ca levels (1 mg/kg, day 7 (24 h after administration), group mean): 5.027
- Serum Ca levels (1 mg/kg, day 7 (24 h after administration), individual rats, 1 mg/kg): 5.540 and 3.798 and 5.148 and 4.511 and 4.963 and 5.487 and 4.665 and 5.044 and 4.307 and 5.493 and 4.570 and 6.793
- Serum Ca levels (1 mg/kg, day 14 (24 h after administration), group mean): 4.801
- Serum Ca levels (1 mg/kg, day 14 (24 h after administration), individual rats, 1 mg/kg): 5.359 and 3.730 and 4.903 and 4.736 and 4.928 and 5.192 and 4.708 and 5.906 and 3.598 and 4.859 and 4.220 and 5.475
- Serum Ca levels after the first administration, Mean (1 mg/kg, time 0 h, group mean): 7.784
- Serum Ca levels after the first administration, Mean (1 mg/kg, time 0.5 h, group mean): 6.460
- Serum Ca levels after the first administration, Mean (1 mg/kg, time 2 h, group mean): 5.290
- Serum Ca levels after the first administration, Mean (1 mg/kg, time 4 h, group mean): 5.870
- Serum Ca levels after the first administration, Mean (1 mg/kg, time 8 h, group mean): 6.299
- Serum Ca levels after the first administration, Mean (1 mg/kg, time 24 h, group mean): 6.253
- Doses that steadily decreased the serum calcium level (once daily oral for 14 days, 24 h after administration on days 7 and 14): ≥ 0.3 mg/kg
- Doses that significantly decreased the serum calcium level (single oral dose, vs vehicle group): ≥ 0.1 mg/kg

— paper PMC5882164, “A novel calcimimetic agent, evocalcet (MT-4580/KHK7580), suppresses the parathyroid cell function with little effect on the gastrointestinal tract or CYP isozymes in vivo and in vitro” (PLoS ONE, 2018)
